# Data as given in paper PMC8582298 (ChemMedChem, 2020).
# What was measured:
# [1] = target: T1, PP1 (Oryctolagus cuniculus, UniProt P62139); test: Malachite green assay, IC50 determination, PP1; format: biochemical; conditions: for PP1 versus PP2A preference (in words): based on IC50 values; for IC50 PP1: malachite green assay, phosphopeptide K-R-pT-I-R-R 40 μM, 30 °C, three trials
# [2] = target: PP2A (Homo sapiens, UniProt P67775); test: Malachite green assay, IC50 determination, PP2A; format: biochemical
# Chain of PP2A (P67775 whole entry): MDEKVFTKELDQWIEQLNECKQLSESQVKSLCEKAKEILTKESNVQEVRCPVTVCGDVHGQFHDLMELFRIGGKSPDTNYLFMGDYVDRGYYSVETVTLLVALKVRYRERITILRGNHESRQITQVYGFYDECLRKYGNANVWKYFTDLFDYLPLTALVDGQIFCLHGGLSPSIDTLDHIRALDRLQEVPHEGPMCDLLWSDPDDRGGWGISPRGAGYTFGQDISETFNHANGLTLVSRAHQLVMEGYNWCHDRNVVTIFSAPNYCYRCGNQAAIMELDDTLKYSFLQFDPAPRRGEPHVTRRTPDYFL
# [3] = target: T1, PP1; conditions: literature values; cited from earlier work
# T1 sequence (P62139 whole entry): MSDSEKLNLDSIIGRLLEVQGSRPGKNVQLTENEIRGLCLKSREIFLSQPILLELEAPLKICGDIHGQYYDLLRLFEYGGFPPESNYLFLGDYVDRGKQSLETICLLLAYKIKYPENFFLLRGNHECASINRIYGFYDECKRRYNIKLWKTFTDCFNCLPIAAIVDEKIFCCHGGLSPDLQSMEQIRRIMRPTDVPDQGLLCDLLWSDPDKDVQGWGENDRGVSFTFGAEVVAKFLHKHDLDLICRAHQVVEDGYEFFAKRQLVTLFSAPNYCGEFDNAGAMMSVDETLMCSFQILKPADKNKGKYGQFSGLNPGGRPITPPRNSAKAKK
Structure (SMILES),IC50 [1],PP1 versus PP2A preference (in words) [1],IC50 PP1 [1],IC50 [2],Selectivity for PP1 over PP2A [3]
"CC1=C([C@H](O)CC(=O)O[C@H](C)[C@@H](C)[C@H](O)CC(=O)[C@@H](C)[C@@H](O)CCCCCOC(=O)c2ccccc2)C(=O)OC1=O [1d, (6S,7S,10R,11S,12R)-6,10-dihydroxy-12-(((R)-3-hydroxy-3-(4-methyl-2,5-dioxo-2,5-dihydrofuran-3-yl)propanoyl)oxy)-7,11-dimethyl-8-oxotridecyl benzoate]",34 ± 2 nM,PP1 selective,nanomolar range,260 nM,–
"CC1=C([C@H](O)CC(=O)O[C@H](C)[C@@H](C)[C@H](O)CC(=O)[C@@H](C)[C@@H](O)CCCCCOC(=O)c2ccc(-c3ccccc3)cc2)C(=O)OC1=O [1e, (6S,7S,10R,11S,12R)-6,10-dihydroxy-12-(((R)-3-hydroxy-3-(4-methyl-2,5-dioxo-2,5-dihydrofuran-3-yl)propanoyl)oxy)-7,11-dimethyl-8-oxotridecyl [1,1’-biphenyl]-4-carboxylate]",1500 ± 150 nM,PP1 selective,nanomolar range,6800 nM,–
"CO[C@H]([C@H](O)CC(=O)[C@@H](C)[C@@H](O)CC[C@@H](C)[C@@H]1O[C@]2(CC[C@@H](C)[C@H](CC[C@H](C)C(C)=O)O2)CC[C@@H]1C)[C@H](OC(=O)C[C@@H](O)C1=C(C)C(=O)OC1=O)C(C)C [TTM, tautomycin]",–,–,–,–,approximately 5 fold
"C=C/C(=C/C(=O)C[C@H](C)C[C@@H](C)CC[C@H](O)[C@H](C)C(=O)C[C@@H](O)[C@H](C)[C@@H](C)OC(=O)C[C@@H](O)C1=C(C)C(=O)OC1=O)CC [TTN, tautomycetin, reference compound]",11 ± 1 nM,–,–,490 nM,~140 fold
